Test system: MV-4-11 cells
Experiment: Gene expression microarray analysis (Affymetrix PrimeView) and GSEA
Type: cell-based, human
Parameters: RFU PODN (11730768_x_at) / Fold change /veh PODN (11730768_x_at) / RFU LINC00158 (11744669_a_at) / Fold change /veh LINC00158 (11744669_a_at) / RFU DUSP10 (11751237_a_at) / Fold change /veh DUSP10 (11751237_a_at) / RFU ID3 (11757404_x_at) / Fold change /veh ID3 (11757404_x_at) / RFU PLEKHG5 (11737974_s_at) / Fold change /veh PLEKHG5 (11737974_s_at) / RFU LRRC4B (11730491_at) / Fold change /veh LRRC4B (11730491_at) / RFU GIMAP4 (11747438_a_at) / Fold change /veh GIMAP4 (11747438_a_at) / RFU KRT8 (11758183_x_at) / Fold change /veh KRT8 (11758183_x_at) / RFU CNN1 (11734310_a_at) / Fold change /veh CNN1 (11734310_a_at) / RFU VPS37D (11726825_at) / Fold change /veh VPS37D (11726825_at) / RFU C10orf10 (11716522_x_at) / Fold change /veh C10orf10 (11716522_x_at) / RFU KIR2DL2 /// KIR2DL4 /// KIR2DL5A /// KIR2DL5B /// KIR2DS1 /// KIR2DS2 /// KIR2DS3 /// KIR2DS4 /// KIR3DL3 /// KIR3DL3 /// KIR3DS1 (11738374_at) / Fold change /veh KIR2DL2 /// KIR2DL4 /// KIR2DL5A /// KIR2DL5B /// KIR2DS1 /// KIR2DS2 /// KIR2DS3 /// KIR2DS4 /// KIR3DL3 /// KIR3DL3 /// KIR3DS1 (11738374_at) / RFU C1QL1 (11718748_at) / Fold change /veh C1QL1 (11718748_at) / RFU TMPRSS4 (11747572_a_at) / Fold change /veh TMPRSS4 (11747572_a_at) / RFU HAMP (11756126_x_at) / Fold change /veh HAMP (11756126_x_at) / RFU RNFT2 (11725882_a_at) / Fold change /veh RNFT2 (11725882_a_at) / RFU NR4A2 (11747474_a_at) / Fold change /veh NR4A2 (11747474_a_at) / RFU ABCC12 (11746883_a_at) / Fold change /veh ABCC12 (11746883_a_at) / RFU TMEM136 (11760407_x_at) / Fold change /veh TMEM136 (11760407_x_at) / RFU CLDN22 /// WWC2 (11732394_at) / Fold change /veh CLDN22 /// WWC2 (11732394_at) / RFU HLA-DPB1 (11760878_x_at) / Fold change /veh HLA-DPB1 (11760878_x_at) / RFU SPINT1 (11716480_a_at) / Fold change /veh SPINT1 (11716480_a_at) / RFU GAP43 (11754022_s_at) / Fold change /veh GAP43 (11754022_s_at) / RFU A4GNT (11735810_at) / Fold change /veh A4GNT (11735810_at) / RFU PRB3 (11715151_x_at) / Fold change /veh PRB3 (11715151_x_at) / RFU TUBB4B (11761932_at) / Fold change /veh TUBB4B (11761932_at) / RFU CAPN14 (11732068_a_at) / Fold change /veh CAPN14 (11732068_a_at) / RFU TMCC2 (11721928_a_at) / Fold change /veh TMCC2 (11721928_a_at) / RFU IRGQ (11745062_a_at) / Fold change /veh IRGQ (11745062_a_at) / RFU FAM174B (11720279_a_at) / Fold change /veh FAM174B (11720279_a_at) / RFU TMPRSS4 (11748680_a_at) / Fold change /veh TMPRSS4 (11748680_a_at) / RFU FAM212B (11763350_a_at) / Fold change /veh FAM212B (11763350_a_at) / RFU PLEKHG5 (11743358_a_at) / Fold change /veh PLEKHG5 (11743358_a_at) / RFU ZSCAN30 (11745921_a_at) / Fold change /veh ZSCAN30 (11745921_a_at) / RFU CMKLR1 (11741424_a_at) / Fold change /veh CMKLR1 (11741424_a_at) / RFU LOC101060620 /// MAPK8IP1 (11723275_at) / Fold change /veh LOC101060620 /// MAPK8IP1 (11723275_at) / RFU SPTSSB (11747773_x_at) / Fold change /veh SPTSSB (11747773_x_at) / RFU PRSS12 (11739890_at) / Fold change /veh PRSS12 (11739890_at) / RFU BIN1 (11741810_x_at) / Fold change /veh BIN1 (11741810_x_at) / RFU WNT11 (11732464_a_at) / Fold change /veh WNT11 (11732464_a_at) / RFU C10orf10 (11716521_a_at) / Fold change /veh C10orf10 (11716521_a_at) / RFU C5orf56 (11738089_at) / Fold change /veh C5orf56 (11738089_at) / RFU CYB561 (11721691_x_at) / Fold change /veh CYB561 (11721691_x_at) / RFU ANKRD19P (11752326_a_at) / Fold change /veh ANKRD19P (11752326_a_at) / RFU OR2T12 /// OR2T33 /// OR2T8 (11738714_s_at) / Fold change /veh OR2T12 /// OR2T33 /// OR2T8 (11738714_s_at) / RFU VCAN (11748164_a_at) / Fold change /veh VCAN (11748164_a_at) / RFU JSRP1 (11732532_at) / Fold change /veh JSRP1 (11732532_at) / RFU KRTAP10-11 (11738290_x_at) / Fold change /veh KRTAP10-11 (11738290_x_at) / RFU MYO3A (11730013_a_at) / Fold change /veh MYO3A (11730013_a_at) / RFU EBF3 (11725865_a_at) / Fold change /veh EBF3 (11725865_a_at) / RFU CAMK2N1 (11719241_x_at) / Fold change /veh CAMK2N1 (11719241_x_at) / RFU C5orf56 (11738088_a_at) / Fold change /veh C5orf56 (11738088_a_at) / RFU OLFML3 (11715873_a_at) / Fold change /veh OLFML3 (11715873_a_at) / RFU LOC100653217 /// NTM (11731650_a_at) / Fold change /veh LOC100653217 /// NTM (11731650_a_at) / RFU MAPK11 (11762145_a_at) / Fold change /veh MAPK11 (11762145_a_at) / RFU FIZ1 (11724087_x_at) / Fold change /veh FIZ1 (11724087_x_at) / RFU OASL (11726364_x_at) / Fold change /veh OASL (11726364_x_at) / RFU SOX15 (11748057_x_at) / Fold change /veh SOX15 (11748057_x_at) / RFU CD79A (11719716_a_at) / Fold change /veh CD79A (11719716_a_at) / RFU HIST1H1D (11736915_at) / Fold change /veh HIST1H1D (11736915_at) / RFU CASKIN2 (11723855_a_at) / Fold change /veh CASKIN2 (11723855_a_at) / RFU LOC730098 (11760151_x_at) / Fold change /veh LOC730098 (11760151_x_at) / RFU OR4N2 (11742367_at) / Fold change /veh OR4N2 (11742367_at) / RFU PRRT2 (11749266_a_at) / Fold change /veh PRRT2 (11749266_a_at) / RFU SNX32 (11753110_a_at) / Fold change /veh SNX32 (11753110_a_at) / RFU CDHR5 (11726645_a_at) / Fold change /veh CDHR5 (11726645_a_at) / RFU RCAN1 (11760418_a_at) / Fold change /veh RCAN1 (11760418_a_at) / RFU FAM167A (11723789_a_at) / Fold change /veh FAM167A (11723789_a_at) / RFU FAM26E (11764081_at) / Fold change /veh FAM26E (11764081_at) / RFU ISYNA1 (11749810_s_at) / Fold change /veh ISYNA1 (11749810_s_at) / RFU ACY1 (11761880_at) / Fold change /veh ACY1 (11761880_at) / RFU 11764098_at / Fold change /veh 11764098_at / RFU SAMD14 (11745864_x_at) / Fold change /veh SAMD14 (11745864_x_at) / RFU NPB (11741838_a_at) / Fold change /veh NPB (11741838_a_at) / RFU TMPRSS6 (11731388_a_at) / Fold change /veh TMPRSS6 (11731388_a_at) / RFU KRTAP10-2 (11738614_at) / Fold change /veh KRTAP10-2 (11738614_at) / RFU ARHGAP8 /// PRR5-ARHGAP8 (11727945_x_at) / Fold change /veh ARHGAP8 /// PRR5-ARHGAP8 (11727945_x_at) / RFU KRTAP5-7 /// NADSYN1 (11734609_at) / Fold change /veh KRTAP5-7 /// NADSYN1 (11734609_at) / RFU RASL12 (11751679_a_at) / Fold change /veh RASL12 (11751679_a_at) / RFU CDKN2B (11736163_a_at) / Fold change /veh CDKN2B (11736163_a_at) / RFU PRF1 (11729649_at) / Fold change /veh PRF1 (11729649_at) / RFU, ZNF638 /// ZNF638-IT1 / Fold change vs veh, ZNF638 /// ZNF638-IT1 / RFU, PANK3 / Fold change vs veh, PANK3 / RFU, SH3YL1 / Fold change vs veh, SH3YL1 / RFU, ZEB2 / Fold change vs veh, ZEB2 / RFU, NRIP1 / Fold change vs veh, NRIP1 / RFU, PTTG1IP / Fold change vs veh, PTTG1IP / RFU, CAPN2 / Fold change vs veh, CAPN2 / RFU, MED14 / Fold change vs veh, MED14 / RFU, SNORA58 / Fold change vs veh, SNORA58 / RFU, C1orf63 / Fold change vs veh, C1orf63 / RFU, LRRFIP1 / Fold change vs veh, LRRFIP1 / RFU, NDUFAF7 / Fold change vs veh, NDUFAF7 / RFU, SLC12A2 / Fold change vs veh, SLC12A2 / RFU, IBTK / Fold change vs veh, IBTK / RFU, ESF1 / Fold change vs veh, ESF1 / Fold change vs veh, TMEM50B / RFU, TAOK1 / Fold change vs veh, TAOK1 / RFU, ACBD3 / Fold change vs veh, ACBD3 / RFU, TMA16 / Fold change vs veh, TMA16 / RFU, RWDD3 / Fold change vs veh, RWDD3 / RFU, BCAT1 / Fold change vs veh, BCAT1 / RFU, EDEM3 / Fold change vs veh, EDEM3 / RFU, TMEM33 / Fold change vs veh, TMEM33 / RFU, WDR75 / Fold change vs veh, WDR75 / RFU, AHCTF1 / Fold change vs veh, AHCTF1 / RFU, TFRC / Fold change vs veh, TFRC / RFU, ZDHHC17 / Fold change vs veh, ZDHHC17 / RFU, NOM1 / Fold change vs veh, NOM1 / RFU, ARL8B / Fold change vs veh, ARL8B / RFU, ZBTB11 / Fold change vs veh, ZBTB11 / RFU, TAMM41 / Fold change vs veh, TAMM41 / RFU, KIAA1704 /// LOC100996395 / Fold change vs veh, KIAA1704 /// LOC100996395 / RFU, ING1 / Fold change vs veh, ING1 / RFU, TRMT61B / Fold change vs veh, TRMT61B / RFU, FUBP3 / Fold change vs veh, FUBP3 / RFU, TP53 / Fold change vs veh, TP53 / RFU, TNKS2 / Fold change vs veh, TNKS2 / RFU, ZFP14 / Fold change vs veh, ZFP14 / RFU, ACTR2 / Fold change vs veh, ACTR2 / RFU, PPP3R1 / Fold change vs veh, PPP3R1 / RFU, PIK3R1 / Fold change vs veh, PIK3R1 / RFU, HNRNPA1 / Fold change vs veh, HNRNPA1 / RFU, RNF170 / Fold change vs veh, RNF170 / RFU, ZNF28 / Fold change vs veh, ZNF28 / RFU, RNGTT / Fold change vs veh, RNGTT / RFU, OGT / Fold change vs veh, OGT / RFU, BRD1 / Fold change vs veh, BRD1 / RFU, MARS / Fold change vs veh, MARS / RFU, ZNF655 / Fold change vs veh, ZNF655 / RFU, FAHD1 / Fold change vs veh, FAHD1 / RFU, BDP1 / Fold change vs veh, BDP1 / RFU, LRRCC1 / Fold change vs veh, LRRCC1 / RFU, ARID1A / Fold change vs veh, ARID1A / RFU, ZNF146 / Fold change vs veh, ZNF146 / RFU, ZNF330 / Fold change vs veh, ZNF330 / RFU, GPN3 / Fold change vs veh, GPN3 / RFU, C9orf123 / Fold change vs veh, C9orf123 / RFU, N4BP2L2 / Fold change vs veh, N4BP2L2 / RFU, ARFIP1 / Fold change vs veh, ARFIP1 / RFU, FAM179B / Fold change vs veh, FAM179B / RFU, BCL10 / Fold change vs veh, BCL10 / RFU, UHRF1BP1L / Fold change vs veh, UHRF1BP1L / RFU, BET1 / Fold change vs veh, BET1 / RFU, CNOT2 / Fold change vs veh, CNOT2 / RFU, ZNF268 / Fold change vs veh, ZNF268 / Fold change vs veh, ZNF507 / RFU, DGCR2 / Fold change vs veh, DGCR2 / RFU, WDSUB1 / Fold change vs veh, WDSUB1 / Fold change vs veh, HSP90B1 /// MIR3652 / RFU, ADSS / Fold change vs veh, ADSS / RFU, GK / Fold change vs veh, GK / RFU, ZNF148 / Fold change vs veh, ZNF148 / RFU, TAF9 / Fold change vs veh, TAF9 / RFU, SLC1A5 / Fold change vs veh, SLC1A5 / RFU, SLMO2 / Fold change vs veh, SLMO2 / RFU, ABCC4 / Fold change vs veh, ABCC4 / RFU, LOC101060439 /// RAP1B / Fold change vs veh, LOC101060439 /// RAP1B / RFU, RFX7 / Fold change vs veh, RFX7 / RFU, GTPBP10 / Fold change vs veh, GTPBP10 / RFU, CNEP1R1 / Fold change vs veh, CNEP1R1 / RFU, BIVM-ERCC5 /// ERCC5 / Fold change vs veh, BIVM-ERCC5 /// ERCC5 / RFU, ILF3 / Fold change vs veh, ILF3 / RFU 11762660_at / Fold change /veh 11762660_at / RFU VCAN (11757783_s_at) / Fold change /veh VCAN (11757783_s_at) / RFU DDX43 (11728927_at) / Fold change /veh DDX43 (11728927_at) / RFU KRT8 (11758188_x_at) / Fold change /veh KRT8 (11758188_x_at) / RFU NKD1 (11759106_at) / Fold change /veh NKD1 (11759106_at) / RFU SRD5A1 (11742802_a_at) / Fold change /veh SRD5A1 (11742802_a_at) / RFU TPSAB1 /// TPSB2 (11721975_s_at) / Fold change /veh TPSAB1 /// TPSB2 (11721975_s_at) / RFU GSTM3 (11746129_a_at) / Fold change /veh GSTM3 (11746129_a_at) / RFU IL23R (11737362_x_at) / Fold change /veh IL23R (11737362_x_at) / RFU TMEM51 (11727254_a_at) / Fold change /veh TMEM51 (11727254_a_at) / RFU PIWIL2 (11732686_x_at) / Fold change /veh PIWIL2 (11732686_x_at) / RFU ORM1 (11744905_x_at) / Fold change /veh ORM1 (11744905_x_at) / RFU CCDC152 (11743942_at) / Fold change /veh CCDC152 (11743942_at) / RFU ECM1 (11717891_a_at) / Fold change /veh ECM1 (11717891_a_at) / RFU IL23R (11748794_a_at) / Fold change /veh IL23R (11748794_a_at) / RFU TNFAIP8L3 (11732012_x_at) / Fold change /veh TNFAIP8L3 (11732012_x_at) / RFU MBOAT4 (11741988_at) / Fold change /veh MBOAT4 (11741988_at) / RFU 11764193_at / Fold change /veh 11764193_at / RFU TMEM53 (11763286_at) / Fold change /veh TMEM53 (11763286_at) / RFU MAGEB2 (11727129_at) / Fold change /veh MAGEB2 (11727129_at) / RFU TMEM200A (11744735_a_at) / Fold change /veh TMEM200A (11744735_a_at) / RFU CCDC152 (11751479_a_at) / Fold change /veh CCDC152 (11751479_a_at) / RFU FAM211A (11726209_a_at) / Fold change /veh FAM211A (11726209_a_at) / RFU RGS16 (11746705_a_at) / Fold change /veh RGS16 (11746705_a_at) / RFU VCAN (11755009_s_at) / Fold change /veh VCAN (11755009_s_at) / RFU RHOB (11743442_s_at) / Fold change /veh RHOB (11743442_s_at) / RFU RGS16 (11720943_a_at) / Fold change /veh RGS16 (11720943_a_at) / RFU RGS16 (11720944_at) / Fold change /veh RGS16 (11720944_at) / RFU, VPS4B / Fold change vs veh, VPS4B / RFU, CREB1 / Fold change vs veh, CREB1 / RFU, DNAJC13 / Fold change vs veh, DNAJC13 / RFU, GNAQ / Fold change vs veh, GNAQ / RFU, CDK5R1 / Fold change vs veh, CDK5R1 / RFU, ZRANB3 / Fold change vs veh, ZRANB3 / RFU, CUL4A / Fold change vs veh, CUL4A / RFU, CCNY / Fold change vs veh, CCNY / RFU, UFL1 / Fold change vs veh, UFL1 / RFU, COG3 / Fold change vs veh, COG3 / RFU, DIAPH2 / Fold change vs veh, DIAPH2 / RFU, SKA2 / Fold change vs veh, SKA2 / RFU, AFF3 / Fold change vs veh, AFF3 / RFU, LMF1 / Fold change vs veh, LMF1 / RFU, IPO11 / Fold change vs veh, IPO11 / RFU, DFFB / Fold change vs veh, DFFB / RFU, FOXP1 / Fold change vs veh, FOXP1 / RFU, CARD8 / Fold change vs veh, CARD8 / RFU, STRN3 / Fold change vs veh, STRN3 / RFU, ADK / Fold change vs veh, ADK / RFU, RASSF2 / Fold change vs veh, RASSF2 / RFU, WIPF1 / Fold change vs veh, WIPF1 / RFU, LARP1B / Fold change vs veh, LARP1B / RFU, RASA1 / Fold change vs veh, RASA1 / RFU, RB1 / Fold change vs veh, RB1 / RFU, PPFIA1 / Fold change vs veh, PPFIA1 / RFU, MAT2A / Fold change vs veh, MAT2A / RFU, CCT5 / Fold change vs veh, CCT5 / RFU, WDR92 / Fold change vs veh, WDR92 / RFU, CUX1 / Fold change vs veh, CUX1 / RFU, TTC7A / Fold change vs veh, TTC7A / RFU, TMEM135 / Fold change vs veh, TMEM135 / RFU, DEPTOR / Fold change vs veh, DEPTOR / RFU, CPM / Fold change vs veh, CPM / RFU, DNAJB6 / Fold change vs veh, DNAJB6 / RFU, CACNA2D3 / Fold change vs veh, CACNA2D3 / RFU, DTX4 / Fold change vs veh, DTX4 / RFU, TFCP2 / Fold change vs veh, TFCP2 / RFU, GMCL1 /// GMCL1P1 / Fold change vs veh, GMCL1 /// GMCL1P1 / RFU, AEBP2 / Fold change vs veh, AEBP2 / RFU, SNHG1 /// SNORD22 /// SNORD25 /// SNORD26 /// SNORD27 /// SNORD28 /// SNORD29 /// SNORD31 / Fold change vs veh, SNHG1 /// SNORD22 /// SNORD25 /// SNORD26 /// SNORD27 /// SNORD28 /// SNORD29 /// SNORD31 / Fold change (Aza/veh), C12orf56 (ProbeSet 11735607_a_at) / Fold change (ACY-1035/veh), C12orf56 (ProbeSet 11735607_a_at) / Fold change (Aza/veh), FGFR1OP (ProbeSet 11751329_s_at) / Fold change (ACY-1035/veh), FGFR1OP (ProbeSet 11751329_s_at) / Fold change (Aza/veh), VPS36 (ProbeSet 11739960_a_at) / Fold change (ACY-1035/veh), VPS36 (ProbeSet 11739960_a_at) / RFU SYPL1 (11715823_x_at) / Fold change /veh SYPL1 (11715823_x_at) / RFU IGFBP7 (11715501_s_at) / Fold change /veh IGFBP7 (11715501_s_at) / RFU REEP3 (11722064_at) / Fold change /veh REEP3 (11722064_at) / RFU IGLL1 (11728026_x_at) / Fold change /veh IGLL1 (11728026_x_at): dose or concentration left out as unconfirmed
Settings: ProbeSet 11750457_a_at; LIST B

## Nc1ncn([C@@H]2O[C@H](CO)[C@@H](O)[C@H]2O)c(=O)n1 [azacitidine]
  RFU, GTPBP10: 30.84 RFU

Reference: PMC5218480 (PLoS ONE, 2017)
